US6706740B2, “Fungicidal heterocyclic aromatic amides and their compositions, methods of use and preparation” (Dow AgroSciences LLC, priority 1999, dated 2004)
Read-outs that look alike come from different tables or passages of the source.

Legend:
[1] = test system: Magnaporthe grisea (Pyricularia oryzae—PYRIOR); assay: microbe, parasite or virus in culture; type: cell-based; settings: Pyricularia oryzae, read-out: PYRIOR in vitro Growth Inhibition
[2] = test system: Rhizoctonia solani (RHIZSO); assay: microbe, parasite or virus in culture; type: cell-based; settings: Rhizoctonia solani, read-out: RHIZSO in vitro Growth Inhibition
[3] = test system: Mycosphaerella graminicola (Septoria tritici—SEPTTR); assay: In vitro fungal growth inhibition, Mycosphaerella graminicola (SEPTTR); type: cell-based; settings: Zymoseptoria tritici, read-out: SEPTTR in vitro Growth Inhibition
[4] = test system: Stagonospora nodorum (Leptosphaeria nodorum—LEPTNO); assay: In vitro fungal growth inhibition, Stagonospora nodorum (LEPTNO); type: cell-based; settings: Leptosphaeria, read-out: LEPTNO in vitro Growth Inhibition
Ustilago maydis (USTIMA) = assay: microbe, parasite or virus in culture; type: cell-based; settings: Mycosarcoma maydis, read-out: USTIMA in vitro Growth Inhibition
[5] = test system: Phytophthora infestans (PHYTIN); assay: microbe, parasite or virus in culture; type: cell-based; settings: Phytophthora infestans, read-out: PHYTIN in vitro Growth Inhibition
[6] = test system: Phytophthora infestans—PHYTIN; assay: whole plant or invertebrate; type: in vivo; settings: Phytophthora, in Solanum lycopersicum, 24 h, read-out: PHYTIN in vivo 1 Day Protectant
[7] = test system: Puccinia recondita—PUCCRT; assay: Brown Rust of Wheat, in vivo whole plant, 24 Hour Protectant
Erysiphe graminis—ERYSGT = assay: Powdery Mildew of Wheat, in vivo whole plant, 24 Hour Protectant; settings: for pest or weed control at 100 ppm: Erysiphe, read-out: ERYSGT in vivo 1 Day Protectant
Septoria tritici—SEPTTR = assay: Leaf Blotch of Wheat, in vivo whole plant, 24 Hour Protectant
[8] = test system: Leptosphaeria nodorum—LEPTNO; assay: Glume Blotch of Wheat, in vivo whole plant, 24 Hour Protectant; settings: for pest or weed control at 100 ppm: Leptosphaeria, read-out: LEPTNO in vivo 1 Day Protectant
[9] = 100 ppm spray, wheat, 24 hour protectant, % control of fungal infection vs untreated plants

Row | Compound | inhibition at 25 ppm [1] | inhibition at 25 ppm [2] | inhibition at 25 ppm ([3]; 25 ppm in growth medium) | inhibition at 25 ppm ([4]; 25 ppm in growth medium) | inhibition at 25 ppm (Ustilago maydis (USTIMA)) | inhibition at 25 ppm [5] | pest or weed control at 100 ppm [6] | PUCCRT in vivo 1 Day Protectant [7, 9] | pest or weed control at 100 ppm (Erysiphe graminis—ERYSGT; [9]) | SEPTTR in vivo 1 Day Protectant (Septoria tritici—SEPTTR; [9]) | LEPTNO in vivo 1 Day Protectant [8, 9] | also measured
1 | COc1ccc(C(=O)Oc2c(OC)ccnc2C(=O)N[C@H]2COC(=O)[C@H](Cc3ccccc3)[C@@H](OC(=O)C(C)C)[C@H](C)OC2=O)cc1 [Compound 634] | < 80% | < 80% | < 80% | < 80% | < 80% | < 80% | < 25% | + + | < 25% | + + | + + | 
2 | COc1ccnc(C(=O)N[C@H]2COC(=O)[C@H](Cc3ccccc3)[C@@H](OC(=O)C(C)C)[C@H](C)OC2=O)c1OC(=O)c1ccc(F)c(F)c1 [Compound 639] | < 80% | < 80% | < 80% | > 80% | < 80% | < 80% | < 25% | + + | < 25% | + + | + + | 
3 | COc1ccnc(C(=O)N[C@H]2COC(=O)[C@H](Cc3ccccc3)[C@@H](OC(=O)C(C)C)[C@H](C)OC2=O)c1OC(=O)Cc1ccccc1 [Compound 648] | > 80% | < 80% |  |  | < 80% | < 80% | < 25% |  |  |  |  | inhibition at 25 ppm [3]: < 80%; inhibition at 25 ppm [4]: < 80%; PUCCRT in vivo 1 Day Protectant ([7]; in vivo): + +; ERYSGT in vivo 1 Day Protectant (Erysiphe graminis—ERYSGT; in vivo): + +; SEPTTR in vivo 1 Day Protectant (Septoria tritici—SEPTTR; in vivo): + +; LEPTNO in vivo 1 Day Protectant ([8]; in vivo): + +
4 | COc1ccnc(C(=O)N[C@H]2COC(=O)[C@H](Cc3ccccc3)[C@@H](OC(=O)C(C)C)[C@H](C)OC2=O)c1OC(=O)CCc1ccccc1 [Compound 650] | > 80% | < 80% |  |  | < 80% | < 80% | < 25% |  |  |  |  | inhibition at 25 ppm [3]: < 80%; inhibition at 25 ppm [4]: > 80%; PUCCRT in vivo 1 Day Protectant ([7]; in vivo): + +; pest or weed control at 100 ppm (Erysiphe graminis—ERYSGT; 24 h): < 25%; SEPTTR in vivo 1 Day Protectant (Septoria tritici—SEPTTR; in vivo): + +; LEPTNO in vivo 1 Day Protectant ([8]; in vivo): + +
5 | COCC(=O)Oc1c(OC)ccnc1C(=O)N[C@H]1COC(=O)[C@H](Cc2ccccc2)[C@@H](OC(=O)C(C)C)[C@H](C)OC1=O [Compound 653] | < 80% | < 80% | > 80% | > 80% | < 80% | < 80% | < 25% | + + |  | + + | + + | ERYSGT in vivo 1 Day Protectant (Erysiphe graminis—ERYSGT; [9]): + +
6 | COc1ccnc(C(=O)N[C@H]2COC(=O)[C@H](Cc3ccccc3)[C@@H](OC(=O)C(C)C)[C@H](C)OC2=O)c1OC(=O)COCc1ccccc1 [Compound 656] | > 80% | < 80% | < 80% | > 80% | < 80% | < 80% | < 25% | + + | < 25% | + + | + + | 
7 | COc1ccnc(C(=O)N[C@H]2COC(=O)[C@H](Cc3ccccc3)[C@@H](OC(=O)C(C)C)[C@H](C)OC2=O)c1OC(=O)c1cnc(Cl)c(Cl)c1 [Compound 670] | < 80% | < 80% | < 80% | > 80% | < 80% | > 80% | < 25% | + + | < 25% | + + | + + | 
8 | COc1ccnc(C(=O)N[C@H]2COC(=O)[C@H](Cc3ccccc3)[C@@H](OC(=O)C(C)C)[C@H](C)OC2=O)c1OC(=O)c1ccco1 [Compound 673] | < 80% | < 80% | < 80% | < 80% | < 80% | < 80% | < 25% | + + | < 25% | + + | + + | 
9 | COc1ccnc(C(=O)N[C@H]2COC(=O)[C@H](Cc3ccccc3)[C@@H](OC(=O)C(C)C)[C@H](C)OC2=O)c1OC(=O)c1cccs1 [Compound 674] | < 80% | < 80% | > 80% | > 80% | < 80% | < 80% | < 25% | + + | < 25% | + + |  | pest or weed control at 100 ppm [8, 9]: 25 to 74%
10 | CCOC(=O)Oc1c(OC)ccnc1C(=O)N[C@H]1COC(=O)[C@H](Cc2ccccc2)[C@@H](OC(=O)C(C)C)[C@H](C)OC1=O [Compound 679] | > 80% | > 80% | < 80% | < 80% | < 80% | < 80% | < 25% | + + |  | + + | + + | ERYSGT in vivo 1 Day Protectant (Erysiphe graminis—ERYSGT; [9]): + +
11 | COc1ccnc(C(=O)N[C@H]2COC(=O)[C@H](Cc3ccccc3)[C@@H](OC(=O)C(C)C)[C@H](C)OC2=O)c1OC(=O)O[C@@H]1C[C@H](C)CC[C@H]1C(C)C [Compound 690] | < 80% | < 80% | < 80% | < 80% | < 80% | < 80% | < 25% |  | < 25% | + + |  | pest or weed control at 100 ppm ([7]; Puccinia, 100 ppm spray, wheat, 24 hour protectant, % control of fungal infection vs untreated plants, read-out: PUCCRT in vivo 1 Day Protectant): 25 to 74%; pest or weed control at 100 ppm [8, 9]: 25 to 74%
12 | COc1ccnc(C(=O)N[C@H]2COC(=O)[C@H](Cc3ccccc3)[C@@H](OC(=O)C(C)C)[C@H](C)OC2=O)c1OC(=O)OCCBr [Compound 692] | > 80% | < 80% | > 80% | > 80% | < 80% | < 80% | < 25% | + + | < 25% | + + | + + | 
13 | CCC(C)C(=O)O[C@H]1[C@H](C)OC(=O)[C@@H](NC(=O)c2nccc(OC)c2OC(C)=O)COC(=O)[C@@H]1Cc1ccccc1 (some centres unmarked) [Compound 701] | < 80% | < 80% | > 80% | > 80% | < 80% | < 80% | < 25% | + + |  | + + | + + | ERYSGT in vivo 1 Day Protectant (Erysiphe graminis—ERYSGT; [9]): + +
14 | COc1ccnc(C(=O)N[C@H]2COC(=O)[C@H](Cc3ccccc3)[C@@H](OC(=O)CC(C)C)[C@H](C)OC2=O)c1OC(C)=O [Compound 702] | < 80% | < 80% | < 80% | > 80% | < 80% | < 80% | < 25% | + + | < 25% | + + | + + | 
15 | COc1ccnc(C(=O)Nc2cccc(Sc3ccc(C(F)(F)F)cc3)c2)c1OC(C)=O [Compound 710] | > 80% | < 80% | > 80% | > 80% | < 80% | < 80% | < 25% | + + | < 25% | + + | + + | 
16 | COCCC(=O)Oc1c(OC)ccnc1C(=O)Nc1ccc(Sc2cccc(C(F)(F)F)c2)cc1 [Compound 712] | > 80% | < 80% | > 80% | > 80% | < 80% | < 80% | < 25% | + + |  | + + |  | ERYSGT in vivo 1 Day Protectant (Erysiphe graminis—ERYSGT; [9]): + +; pest or weed control at 100 ppm [8, 9]: 25 to 74%
